# Source: patent publication EP1377579B1 (Aventis Pharmaceuticals Inc., priority 2000, dated 2002)
# Counter-ions that a name gives are not always drawn.
# Columns and labels:
# [1] = target: cdk4/cyclin D1 (Homo sapiens, UniProt P11802); test: Cyclin-dependent kinase assay, cdk4/cyclin D1; type: biochemical; conditions: cyclin D1/cdk4; GST-pRb substrate, 10 µM ATP
# [2] = system: MDA-MB-435; test: In vitro proliferation assay (MTT), MDA-MB-435; type: cell-based, human; conditions: Homo sapiens, MDA-MB-435, MTT assay; value (SD, n) where given; read-out: MB-435 Breast (IC50 µM)
# Summary of the method: (§1)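 IC50 values come from absorbance at 570 nm after MTT staining of cells grown with compound for 3 days. Seeding density was 1000 to 2500 cells/well, depending on the line.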
# [3] = system: NCI-H460; test: In vitro proliferation assay (MTT), NCI-H460; type: cell-based; conditions: Homo sapiens, NCI-H460; MTT assay; value (SD, n) where given; read-out: H-460 Lung (IC50 µM)
# Method: (§2) The proliferation of tumor cells can be measured using a tetrazolium salt-based assay known as the MTT (3-[4,5-Dimethylthiazol-2-yl]-2,5-diphenyltetrazolium bromide) assay. The proliferation test is performed essentially as described by Carmichael et al., Cancer Res. 47: 936-942, 1987. For the assay, the cell lines are plated onto 96 well plates at 1000 to 2500 cells/well (depending on the properties of the individual cell lines), left to attach and recover overnight. […] After 3 days, the cells are incubated with MTT dye (3-[4,5-Dimethylthiazol-2-yl]-2,5-diphenyltetrazolium bromide, Sigma # M5655, 10 mg/ml in Hank's Buffered Saline) to estimate the amount of live cells remaining vs. concentration for the test compounds. Specifically, MTT solution is added to a final concentration of […] and the plates incubated at 37 C for 2 to 4 hr. The MTT and culture medium is then removed from the cultures and 200 µl of DMSO is added to solubilize the dye from the cell layer. The absorbance at 570 nm is determined for each culture using a Spectramax plate reader (Molecular Devices).
# (§3) IC50s were determined from the raw data from either the MTT or SRB assays.
# (§4) All of the cell lines were obtained from American Type Tissue Collection, with the ATCC accession number in parentheticals. MCF-7 and MDA-MB-231 cells were grown in improved minimum essential medium (Biofluids) without phenol red, supplemented with 5 % fetal bovine serum, 0.01 mg/ml gentamicin and 3 mM L-glutamine. All of the other cell lines were grown in RPMI 1640 medium (Life Technologies) supplemented with 5 % fetal bovine serum, 0.01 mg/ml gentamicin and 3 mM L-glutamine TABLE 3
# [4] = system: HL-60; test: In vitro proliferation assay (MTT), HL-60; type: cell-based; conditions: Homo sapiens, HL-60; MTT assay; value (SD, n) where given; read-out: HL-60 Leuk. (IC50 µM)
# Method: as §2, §3, §4
# [5] = system: Jurkat; test: In vitro proliferation assay (MTT), Jurkat; type: cell-based; conditions: Homo sapiens, MTT assay, value (SD, n) where given, read-out: Jurkat Leuk. (IC50 µM)
# Method: as §2, §3, §4
# [6] = system: PC-3; test: In vitro proliferation assay (MTT), PC-3; type: cell-based, human; conditions: Homo sapiens, PC-3, MTT assay; value (SD, n) where given; read-out: PC-3 Prostate (IC50 µM)
# Summary of the method: as §1
# [7] = system: Colo-205; test: In vitro proliferation assay (MTT), Colo-205; type: cell-based; conditions: Homo sapiens, COLO 205; MTT assay; value (SD, n) where given; read-out: Colo-205 Colon (IC50 µM)
# Method: as §2, §3
# [8] = target: cdk1/cyclin B (Homo sapiens, UniProt P06493); test: Cyclin-dependent kinase assay, cdk1/cyclin B; conditions: CDK1 IC50, nM, Histone H1, 10 µM ATP
# [9] = target: cdk2/cyclin E (Homo sapiens, UniProt P24941); test: Cyclin-dependent kinase assay, cdk2/cyclin E; conditions: CDK2 IC50, nM, GST-pRb substrate, 10 µM ATP
# Chain of cdk4/cyclin D1 (P11802 whole entry): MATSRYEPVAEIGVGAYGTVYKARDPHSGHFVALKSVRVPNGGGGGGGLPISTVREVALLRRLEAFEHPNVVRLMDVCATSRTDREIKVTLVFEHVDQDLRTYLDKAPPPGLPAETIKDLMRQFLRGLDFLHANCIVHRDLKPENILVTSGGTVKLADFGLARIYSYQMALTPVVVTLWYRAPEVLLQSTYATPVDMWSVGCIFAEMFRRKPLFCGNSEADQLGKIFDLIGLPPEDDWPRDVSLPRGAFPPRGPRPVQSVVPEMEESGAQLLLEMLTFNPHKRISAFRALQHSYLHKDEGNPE
# Chain of cdk4/cyclin D1 (P24385 whole entry partner): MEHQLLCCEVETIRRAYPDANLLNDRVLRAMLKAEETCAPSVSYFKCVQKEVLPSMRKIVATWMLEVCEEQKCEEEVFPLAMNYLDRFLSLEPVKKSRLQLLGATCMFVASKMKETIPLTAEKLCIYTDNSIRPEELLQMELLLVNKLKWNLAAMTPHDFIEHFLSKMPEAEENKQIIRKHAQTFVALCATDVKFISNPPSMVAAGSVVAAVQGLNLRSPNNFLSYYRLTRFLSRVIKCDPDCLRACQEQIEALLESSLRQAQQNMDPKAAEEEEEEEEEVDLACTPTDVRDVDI
# Chain of cdk1/cyclin B (P06493 whole entry): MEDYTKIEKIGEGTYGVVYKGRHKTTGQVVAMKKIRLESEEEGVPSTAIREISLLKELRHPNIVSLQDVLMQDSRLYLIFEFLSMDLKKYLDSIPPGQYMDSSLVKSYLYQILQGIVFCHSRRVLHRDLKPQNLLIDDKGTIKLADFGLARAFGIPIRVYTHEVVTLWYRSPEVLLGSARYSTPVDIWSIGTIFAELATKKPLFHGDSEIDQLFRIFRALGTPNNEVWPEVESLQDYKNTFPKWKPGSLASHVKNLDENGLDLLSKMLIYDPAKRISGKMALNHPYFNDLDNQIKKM
# Chain of cdk1/cyclin B (P14635 whole entry partner): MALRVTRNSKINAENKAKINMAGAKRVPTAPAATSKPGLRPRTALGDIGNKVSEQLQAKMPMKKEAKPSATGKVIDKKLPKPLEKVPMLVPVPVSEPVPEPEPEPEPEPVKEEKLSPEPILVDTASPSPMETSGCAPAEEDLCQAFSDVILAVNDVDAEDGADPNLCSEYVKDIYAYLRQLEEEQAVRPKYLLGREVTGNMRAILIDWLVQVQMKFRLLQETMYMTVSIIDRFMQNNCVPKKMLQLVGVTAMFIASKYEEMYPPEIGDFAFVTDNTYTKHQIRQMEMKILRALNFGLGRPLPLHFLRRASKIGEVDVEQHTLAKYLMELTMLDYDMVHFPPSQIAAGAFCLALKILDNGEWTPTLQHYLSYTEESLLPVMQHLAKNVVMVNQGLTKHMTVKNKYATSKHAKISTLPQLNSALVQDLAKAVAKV
IC50 [1] [nM],IC50 [2] [µM],IC50 [3] [µM],IC50 [4] [µM],IC50 [5] [µM],IC50 [6] [µM],IC50 [7] [µM],IC50 [8] [nM],IC50 [9] [nM],SMILES
1300,0.24,0.29,0.06,0.33,0.25,0.04,67,548,"N[C@H]1CC[C@H](Nc2nc(NC3CCN(C(=O)NC45CC6CC(CC(C6)C4)C5)CC3)c3ncn(C4CCCC4)c3n2)CC1 (relative stereo) [compound 181, trans-4-[2-(4-Amino-cyclohexylamino)-9-cyclopentyl-9H-purin-6-ylamino]-piperidine-1-carboxylic acid adamantan-1-ylamide dihydrochloride]"
2040,0.17,0.19,,,0.16,0.04,105,5,"N[C@H]1CC[C@H](Nc2nc(NC3CCN(C(=O)COc4ccc(Cl)cc4)CC3)c3ncn(C4CCCC4)c3n2)CC1 [compound 31, trans-1-{4-[2-(4-Amino-cyclohexylamino)-9-cyclopentyl-9H-purin-6-ylamino]-piperidin-1-yl}-2-(4-chloro-phenoxy)-ethanone dihydrochloride]"
427,0.26,0.24,,,0.33,0.07,58,30,"N[C@H]1CC[C@H](Nc2nc(NC3CCN(C(=O)CCc4ccccc4)CC3)c3ncn(C4CCCC4)c3n2)CC1 [compound 33, trans 1-{4-[2-(4-Amino-cyclohexylamino)-9-cyclopentyl-9H-purin-6-ylamino]-piperidin-1-yl}-3-phenyl-propan-1-one dihydrochloride]"
1700,0.26,0.23,,,0.2,< 0.02,15,32,"N[C@H]1CC[C@H](Nc2nc(NC3CCN(C(=O)COCc4ccccc4)CC3)c3ncn(C4CCCC4)c3n2)CC1 [compound 37, trans-1-{4-[2-(4-Amino-cyclohexylamino)-9-cyclopentyl-9H-purin-6-ylamino]-piperidin-1-yl}-2-benzyloxy-ethanone dihydrochloride]"
709,0.17,0.17,,,0.19,0.06,153,55,"N[C@H]1CC[C@H](Nc2nc(NC3CCN(C(=O)CSc4ccccc4)CC3)c3ncn(C4CCCC4)c3n2)CC1 [compound 46, trans-1-{4-[2-(4-Amino-cyclohexylamino)-9-cyclopentyl-9H-purin-6-ylamino]-piperidin-1-yl}-2-phenylsulfanylethanone dihydrochloride]"
441,0.17,0.24,,,0.21,0.16,23,66,"N[C@H]1CC[C@H](Nc2nc(NC3CCN(C(=O)C4CCC4)CC3)c3ncn(C4CCCC4)c3n2)CC1 [compound 63, trans-1-{4-[2-(4-Amino-cyclohexylamino)-9-cyclopentyl-9H-purin-6-ylamino]-piperidin-1-yl}-1-cyclobutyl-methanone dihydrochloride]"
,0.25,0.17,0.05,0.19,0.22,0.11,60,50,"C=CCCOC(=O)N1CCC(Nc2nc(N[C@H]3CC[C@H](N)CC3)nc3c2ncn3C2CCCC2)CC1 [compound 100, trans-4-[2-(4-Amino-cyclohexylamino)-9-cyclopentyl-9H-purin-6-ylamino]-piperidine-1-carboxylic acid but-3-enyl ester dihydrochloride]"
69,0.18,0.29,,,0.5,0.21,7,8,"N[C@H]1CC[C@H](Nc2nc(NC3CCN(S(=O)(=O)c4ccccc4)CC3)c3ncn(C4CCCC4)c3n2)CC1 [compound 105, trans-N^2-(4-Amino-cyclohexyl)-N^6-(1-benzenesulfonyl-piperidin-4-yl)-9-cyclopentyl-9H-purine-2,6-diamine dihydrochloride]"
170,0.14,0.29,,,0.43,0.18,7,10,"N[C@H]1CC[C@H](Nc2nc(NC3CCN(S(=O)(=O)c4ccc(Cl)cc4)CC3)c3ncn(C4CCCC4)c3n2)CC1 [compound 108, trans-N -(4-Amino-cyclohexyl)-9-cyclopentyl-N^6-[1-(4-chloro-benzenesulfonyl)-piperidin-4-yl]-9H-purine-2,6-diamine dihydrochloride]"
158,0.44,0.65,,,0.76,0.25,27,9,"Cc1noc(C)c1S(=O)(=O)N1CCC(Nc2nc(N[C@H]3CC[C@H](N)CC3)nc3c2ncn3C2CCCC2)CC1 [compound 110, trans-N^2-(4-Amino-cyclohexyl)-9-cyclopentyl-N^6-[1-(3,5-dimethyl-isoxazole-4-sulfonyl)-piperidin-4-yl]-9H-purine-2,6-diamine dihydrochloride]"
558,39,,24.2,43.6,34.1,,290,31,"N[C@H]1CC[C@H](Nc2nc(NC3CCN(S(=O)(=O)c4cc(Cl)cc(Cl)c4O)CC3)c3ncn(C4CCCC4)c3n2)CC1 [compound 117, trans-2-{4-[2-(4-Amino-cyclohexylamino)-9-cyclopentyl-9H-purin-6-ylamino]-piperidine-1-sulfonyl}-4,6-dichloro-phenol dihydrochloride]"
,0.2,0.27,< 0.02,0.19,0.22,0.1,,,"N[C@H]1CC[C@H](Nc2nc(NC3CCN(S(=O)(=O)c4ccc([N+](=O)[O-])cc4)CC3)c3ncn(C4CCCC4)c3n2)CC1 [compound 120, trans-N^2-(4-Amino-cyclohexyl)-9-cyclopentyl-N^6-[1-(4-nitro-benzenesulfonyl)-piperidin-4-yl]-9H-purine-2,6-diamine dihydrochloride]"
,0.03,0.08,0.01,0.07,0.06,0.02,,,"N[C@H]1CC[C@H](Nc2nc(NC3CCN(C(=O)Nc4ccc(F)cc4F)CC3)c3ncn(C4CCCC4)c3n2)CC1 [compound 166, trans-4-[2-(4-Amino-cyclohexylamino)-9-cyclopentyl-9H-purin-6-ylamino]-piperidine-1-carboxylic acid (2,4-difluoro-phenyl)-amide dihydrochloride]"
111,0.15,0.19,0.04,,0.19,0.16,29,52,"N[C@H]1CC[C@H](Nc2nc(NC3CCN(C(=O)Nc4ccccc4Br)CC3)c3ncn(C4CCCC4)c3n2)CC1 [compound 168, trans-4-[2-(4-Amino-cyclohexylamino)-9-cyclopentyl-9H-purin-6-ylamino]-piperidine-1-carboxylic acid (2-bromo-phenyl)-amide dihydrochloride]"

SMILES,IC50 [1] [nM],IC50 [2] [µM],IC50 [3] [µM],IC50 [4] [µM],IC50 [5] [µM],IC50 [6] [µM],IC50 [7] [µM],IC50 [8] [nM],IC50 [9] [nM]
"CC1(C)C2CCC1(CS(=O)(=O)N1CCC(Nc3nc(N[C@H]4CC[C@H](N)CC4)nc4c3ncn4C3CCCC3)CC1)C(=O)C2 (stereo partly drawn) [compound 107, trans-1-{4-[2-(4-Amino-cyclohexylamino)-9-cyclopentyl-9H-purin-6-ylamino]-piperidine-1-sulfonylmethyl}-7,7-dimethyl-bicyclo[2.2.1]heptan-2-one dihydrochloride]",10,0.11,0.29,,,0.41,0.18,250,35
